Reference: US9340590B2 (priority 2011, dated 2016)
Like-named read-outs stand apart in the source and are kept apart here. Positions of bridges follow the written chain, without caps; N, C: chain ends. Non-standard residues stand in square brackets, D forms with d. Residues, ends and D or L forms follow the SMILES beside them. Phe(4-COOH) = N[C@@H](Cc1ccc(C(=O)O)cc1)C(=O)O; Arg(Me2s) = CN=C(NC)NCCC[C@H](N)C(=O)O; 2Pal = N[C@@H](Cc1ccccn1)C(=O)O

Assays:
Assay in all cases: cell-based
hNav1.7 = hNav1.7 (Homo sapiens, UniProt Q15858); format: cell-based; settings: IonWorks Quattro, use, […], read-out: IWQ Use Nav1.7
hNav1.5 = hNav1.5 (Homo sapiens, UniProt Q14524); settings: IonWorks Quattro, use, […], read-out: IWQ Use Nav1.5
Chain of hNav1.5 (Q14524 whole entry, looked up): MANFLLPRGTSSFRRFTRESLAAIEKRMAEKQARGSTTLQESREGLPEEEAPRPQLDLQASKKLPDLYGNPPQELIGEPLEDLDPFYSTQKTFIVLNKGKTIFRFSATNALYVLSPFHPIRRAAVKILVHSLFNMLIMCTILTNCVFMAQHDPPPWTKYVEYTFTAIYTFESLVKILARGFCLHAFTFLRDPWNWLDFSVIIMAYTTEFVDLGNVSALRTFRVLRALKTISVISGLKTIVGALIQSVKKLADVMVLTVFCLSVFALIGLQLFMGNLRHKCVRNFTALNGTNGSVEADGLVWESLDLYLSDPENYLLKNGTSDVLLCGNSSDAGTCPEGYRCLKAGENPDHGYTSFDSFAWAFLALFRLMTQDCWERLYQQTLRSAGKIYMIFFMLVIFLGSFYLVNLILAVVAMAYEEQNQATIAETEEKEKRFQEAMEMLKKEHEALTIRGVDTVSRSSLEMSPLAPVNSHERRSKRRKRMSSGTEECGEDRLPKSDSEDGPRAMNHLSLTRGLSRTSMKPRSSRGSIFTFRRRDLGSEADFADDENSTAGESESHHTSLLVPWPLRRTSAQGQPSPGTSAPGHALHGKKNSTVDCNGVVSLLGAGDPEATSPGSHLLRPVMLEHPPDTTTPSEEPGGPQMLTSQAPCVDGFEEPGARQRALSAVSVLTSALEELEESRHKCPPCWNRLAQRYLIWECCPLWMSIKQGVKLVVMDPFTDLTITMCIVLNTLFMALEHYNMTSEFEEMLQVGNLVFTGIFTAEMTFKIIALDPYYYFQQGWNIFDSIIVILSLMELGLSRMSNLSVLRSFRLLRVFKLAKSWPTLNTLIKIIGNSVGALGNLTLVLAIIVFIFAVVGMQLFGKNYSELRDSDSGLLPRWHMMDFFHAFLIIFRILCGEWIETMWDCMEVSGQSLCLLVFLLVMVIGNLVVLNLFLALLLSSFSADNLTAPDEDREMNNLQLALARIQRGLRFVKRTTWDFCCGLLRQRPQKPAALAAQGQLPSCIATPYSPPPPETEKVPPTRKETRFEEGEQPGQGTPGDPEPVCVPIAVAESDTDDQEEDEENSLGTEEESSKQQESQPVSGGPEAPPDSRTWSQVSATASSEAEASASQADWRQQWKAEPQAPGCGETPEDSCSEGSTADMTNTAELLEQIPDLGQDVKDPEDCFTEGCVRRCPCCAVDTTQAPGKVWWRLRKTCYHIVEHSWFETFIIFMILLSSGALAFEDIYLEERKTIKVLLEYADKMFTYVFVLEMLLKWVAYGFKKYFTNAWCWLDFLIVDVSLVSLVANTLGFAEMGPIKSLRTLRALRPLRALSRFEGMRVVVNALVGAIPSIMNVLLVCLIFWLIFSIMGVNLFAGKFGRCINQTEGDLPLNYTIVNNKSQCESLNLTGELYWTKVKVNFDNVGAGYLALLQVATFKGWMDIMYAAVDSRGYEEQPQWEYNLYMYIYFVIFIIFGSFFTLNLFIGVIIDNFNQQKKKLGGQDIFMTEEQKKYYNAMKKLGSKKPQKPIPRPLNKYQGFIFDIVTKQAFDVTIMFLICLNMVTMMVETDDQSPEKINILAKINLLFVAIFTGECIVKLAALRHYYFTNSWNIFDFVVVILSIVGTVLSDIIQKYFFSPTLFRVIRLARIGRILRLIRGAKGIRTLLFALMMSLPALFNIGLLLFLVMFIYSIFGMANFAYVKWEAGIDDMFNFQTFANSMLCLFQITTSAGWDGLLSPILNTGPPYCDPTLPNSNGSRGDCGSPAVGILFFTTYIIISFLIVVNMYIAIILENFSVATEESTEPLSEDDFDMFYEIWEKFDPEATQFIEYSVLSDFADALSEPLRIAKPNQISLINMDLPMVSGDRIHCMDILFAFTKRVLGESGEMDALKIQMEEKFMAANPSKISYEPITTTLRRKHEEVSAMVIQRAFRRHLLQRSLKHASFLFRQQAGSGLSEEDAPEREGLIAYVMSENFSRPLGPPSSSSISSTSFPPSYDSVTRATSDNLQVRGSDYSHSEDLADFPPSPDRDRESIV

hNav1.3 = hNav1.3 (Homo sapiens, UniProt Q9NY46); settings: IonWorks Quattro, use, […], read-out: IWQ Use Nav1.3
Chain of hNav1.3 (Q9NY46 whole entry, looked up): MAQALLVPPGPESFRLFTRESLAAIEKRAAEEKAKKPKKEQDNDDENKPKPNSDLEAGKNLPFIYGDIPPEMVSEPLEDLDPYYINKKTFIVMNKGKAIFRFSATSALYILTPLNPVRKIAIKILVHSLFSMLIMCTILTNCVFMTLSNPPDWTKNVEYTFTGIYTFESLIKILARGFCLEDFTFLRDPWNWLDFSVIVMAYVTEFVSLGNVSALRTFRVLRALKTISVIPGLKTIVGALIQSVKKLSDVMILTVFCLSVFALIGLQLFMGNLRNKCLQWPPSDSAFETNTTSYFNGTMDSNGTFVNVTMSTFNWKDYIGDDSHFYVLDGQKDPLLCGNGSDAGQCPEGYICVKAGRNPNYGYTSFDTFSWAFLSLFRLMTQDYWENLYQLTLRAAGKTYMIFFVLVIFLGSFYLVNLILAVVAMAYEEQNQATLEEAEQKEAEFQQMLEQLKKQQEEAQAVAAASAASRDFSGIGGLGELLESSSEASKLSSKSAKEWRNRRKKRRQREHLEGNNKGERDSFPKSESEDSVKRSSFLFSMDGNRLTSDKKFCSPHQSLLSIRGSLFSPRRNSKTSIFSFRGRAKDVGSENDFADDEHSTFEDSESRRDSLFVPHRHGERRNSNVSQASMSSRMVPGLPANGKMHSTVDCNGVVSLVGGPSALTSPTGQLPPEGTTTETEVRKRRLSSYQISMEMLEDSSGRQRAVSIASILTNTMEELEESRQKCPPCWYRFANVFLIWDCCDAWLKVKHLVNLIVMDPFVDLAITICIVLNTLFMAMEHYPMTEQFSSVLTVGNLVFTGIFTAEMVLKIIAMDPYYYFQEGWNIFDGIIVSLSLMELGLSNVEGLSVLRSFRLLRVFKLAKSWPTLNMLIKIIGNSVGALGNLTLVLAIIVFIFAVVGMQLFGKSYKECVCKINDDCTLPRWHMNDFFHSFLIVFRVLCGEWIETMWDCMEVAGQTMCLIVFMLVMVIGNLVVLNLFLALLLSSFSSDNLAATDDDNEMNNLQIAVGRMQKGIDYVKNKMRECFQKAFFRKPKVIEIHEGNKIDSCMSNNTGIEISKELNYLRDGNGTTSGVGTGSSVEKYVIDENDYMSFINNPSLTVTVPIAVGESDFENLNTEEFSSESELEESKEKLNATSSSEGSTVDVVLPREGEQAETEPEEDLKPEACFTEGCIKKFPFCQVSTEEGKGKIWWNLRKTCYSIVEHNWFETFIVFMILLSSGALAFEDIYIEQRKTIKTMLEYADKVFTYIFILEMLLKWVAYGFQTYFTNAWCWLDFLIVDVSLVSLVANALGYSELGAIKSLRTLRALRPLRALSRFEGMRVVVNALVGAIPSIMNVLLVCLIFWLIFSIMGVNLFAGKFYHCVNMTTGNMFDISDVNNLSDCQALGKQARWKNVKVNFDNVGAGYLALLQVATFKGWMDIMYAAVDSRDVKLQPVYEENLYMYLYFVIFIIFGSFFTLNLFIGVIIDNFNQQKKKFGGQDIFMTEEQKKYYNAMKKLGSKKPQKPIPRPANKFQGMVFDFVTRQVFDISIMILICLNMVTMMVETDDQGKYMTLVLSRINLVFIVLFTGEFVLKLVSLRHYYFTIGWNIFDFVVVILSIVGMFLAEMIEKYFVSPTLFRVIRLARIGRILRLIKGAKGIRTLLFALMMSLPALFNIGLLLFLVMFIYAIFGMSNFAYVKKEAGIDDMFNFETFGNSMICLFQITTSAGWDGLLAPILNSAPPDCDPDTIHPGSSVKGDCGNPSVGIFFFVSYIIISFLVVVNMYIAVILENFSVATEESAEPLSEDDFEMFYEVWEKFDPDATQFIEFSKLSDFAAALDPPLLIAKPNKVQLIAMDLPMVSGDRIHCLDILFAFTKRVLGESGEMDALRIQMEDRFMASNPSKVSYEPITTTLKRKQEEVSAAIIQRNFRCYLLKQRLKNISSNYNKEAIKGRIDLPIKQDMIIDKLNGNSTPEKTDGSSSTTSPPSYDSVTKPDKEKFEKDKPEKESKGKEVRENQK

SMILES	IC50 (hNav1.7; Table 22)	IC50 (hNav1.5; Table 22)	IC50 (hNav1.3; Table 22)	IC50 (hNav1.7; Table 23)	IC50 (hNav1.5; Table 23)	IC50 (hNav1.3; Table 23)
CC[C@H](C)[C@@H]1NC(=O)[C@@H]2CSSC[C@@H]3NC(=O)[C@H](C(C)C)NC(=O)[C@H](CC(C)C)NC(=O)[C@H](CC(N)=O)NC(=O)[C@@H]4CCCN4C(=O)[C@H](CCCNC(=N)N)NC(=O)[C@H](CSSC[C@H](NC(=O)[C@@H](N)CC(=O)O)C(=O)N[C@@H](CC(C)C)C(=O)NCC(=O)N[C@@H](Cc4ccccc4)C(=O)N[C@@H](CCSC)C(=O)N[C@@H](CCCNC(=N)N)C(=O)N[C@@H](CCCCN)C(=O)N2)NC(=O)[C@H](CSSC[C@@H](C(=O)N[C@@H](CCCCN)C(=O)N[C@@H](Cc2ccc(O)cc2)C(=O)N[C@H](C(=O)N[C@@H](Cc2ccccc2)C(N)=O)C(C)C)NC(=O)[C@H](Cc2c[nH]c4ccccc24)NC(=O)[C@H](CCCCN)NC(=O)[C@H](Cc2c[nH]cn2)NC(=O)[C@H](CCSC)NC(=O)[C@H](CCCNC(=N)N)NC(=O)[C@H](CO)NC3=O)NC(=O)[C@H](CCCCN)NC(=O)[C@H](CC(=O)O)NC(=O)[C@H](CC(N)=O)NC(=O)[C@H](CC(=O)O)NC(=O)[C@@H]2CCCN2C1=O [compound 346] (H-DCLGFMRKCIPDNDKCCRPNLVCSRMHKWCKYVF-NH2; disulfide 2-17, 9-23, 16-30)	40 nM	4240 nM	20 nM	–	–	–
CC[C@H](C)[C@@H]1NC(=O)[C@@H]2CSSC[C@@H]3NC(=O)[C@H](C(C)C)NC(=O)[C@H](CC(C)C)NC(=O)[C@H](CC(N)=O)NC(=O)[C@@H]4CCCN4C(=O)[C@H](CCCNC(=N)N)NC(=O)[C@H](CSSC[C@H](NC(=O)[C@@H](N)CC(=O)O)C(=O)N[C@@H](CC(C)C)C(=O)NCC(=O)N[C@@H](Cc4ccccc4)C(=O)N[C@@H](CCSC)C(=O)N[C@@H](CCCNC(=N)N)C(=O)N[C@@H](CCCCN)C(=O)N2)NC(=O)[C@H](CSSC[C@@H](C(=O)N[C@@H](CCCCN)C(=O)N[C@@H](Cc2ccc(O)cc2)C(=O)N[C@H](C(=O)N[C@@H](Cc2ccccc2)C(N)=O)C(C)C)NC(=O)[C@H](Cc2c[nH]c4ccccc24)NC(=O)[C@H](CCCCN)NC(=O)[C@H](Cc2c[nH]cn2)NC(=O)[C@H](CC(=O)O)NC(=O)[C@H](CCCNC(=N)N)NC(=O)[C@H](CO)NC3=O)NC(=O)[C@H](CCCCN)NC(=O)[C@H](CC(=O)O)NC(=O)[C@H](CC(N)=O)NC(=O)[C@H](CC(=O)O)NC(=O)[C@@H]2CCCN2C1=O [compound 347] (H-DCLGFMRKCIPDNDKCCRPNLVCSRDHKWCKYVF-NH2; disulfide 2-17, 9-23, 16-30)	960 nM	14100 nM	640 nM	–	–	–
CC[C@H](C)[C@@H]1NC(=O)[C@H](CCCNC(=N)N)NC(=O)[C@H](CO)NC(=O)[C@@H]2CSSC[C@@H]3NC(=O)[C@H](CCCCN)NC(=O)[C@H](CCCNC(=N)N)NC(=O)[C@H](CCSC)NC(=O)[C@H](Cc4ccccc4)NC(=O)CNC(=O)[C@H](CC(C)C)NC(=O)[C@@H](NC(=O)[C@@H](N)CC(=O)O)CSSC[C@H](NC(=O)[C@H](CSSC[C@@H](C(=O)N[C@@H](CCCCN)C(=O)N[C@@H](Cc4ccc(O)cc4)C(=O)N[C@H](C(=O)N[C@@H](Cc4ccccc4)C(N)=O)C(C)C)NC(=O)[C@H](Cc4c[nH]c5ccccc45)NC(=O)[C@H](CCCCN)NC(=O)[C@H](Cc4c[nH]cn4)NC1=O)NC(=O)[C@H](CCCCN)NC(=O)[C@H](CC(=O)O)NC(=O)[C@H](CC(N)=O)NC(=O)[C@H](CC(=O)O)NC(=O)[C@@H]1CCCN1C(=O)[C@H]([C@@H](C)CC)NC3=O)C(=O)N[C@@H](CCCNC(=N)N)C(=O)N1CCC[C@H]1C(=O)N[C@@H](CC(N)=O)C(=O)N[C@@H](CC(C)C)C(=O)N[C@@H](C(C)C)C(=O)N2 [compound 348] (H-DCLGFMRKCIPDNDKCCRPNLVCSRIHKWCKYVF-NH2; disulfide 2-17, 9-23, 16-30)	50 nM	8150 nM	30 nM	–	–	–
CC[C@H](C)[C@@H]1NC(=O)[C@@H]2CSSC[C@@H]3NC(=O)[C@H](C(C)C)NC(=O)[C@H](CC(C)C)NC(=O)[C@H](CC(N)=O)NC(=O)[C@@H]4CCCN4C(=O)[C@H](CCCNC(=N)N)NC(=O)[C@H](CSSC[C@H](NC(=O)[C@@H](N)CC(=O)O)C(=O)N[C@@H](CC(C)C)C(=O)NCC(=O)N[C@@H](Cc4ccccc4)C(=O)N[C@@H](CCSC)C(=O)N[C@@H](CCCNC(=N)N)C(=O)N[C@@H](CCCCN)C(=O)N2)NC(=O)[C@H](CSSC[C@@H](C(=O)N[C@@H](CCCCN)C(=O)N[C@@H](Cc2ccc(O)cc2)C(=O)N[C@H](C(=O)N[C@@H](Cc2ccccc2)C(N)=O)C(C)C)NC(=O)[C@H](Cc2c[nH]c4ccccc24)NC(=O)[C@H](CCCCN)NC(=O)[C@H](Cc2c[nH]cn2)NC(=O)[C@H](Cc2ccccn2)NC(=O)[C@H](CCCNC(=N)N)NC(=O)[C@H](CO)NC3=O)NC(=O)[C@H](CCCCN)NC(=O)[C@H](CC(=O)O)NC(=O)[C@H](CC(N)=O)NC(=O)[C@H](CC(=O)O)NC(=O)[C@@H]2CCCN2C1=O [compound 349] (H-DCLGFMRKCIPDNDKCCRPNLVCSR[2Pal]HKWCKYVF-NH2; disulfide 2-17, 9-23, 16-30)	260 nM	10600 nM	60 nM	–	–	–
CC[C@H](C)[C@@H]1NC(=O)[C@@H]2CSSC[C@@H]3NC(=O)[C@H](C(C)C)NC(=O)[C@H](CC(C)C)NC(=O)[C@H](CC(N)=O)NC(=O)[C@@H]4CCCN4C(=O)[C@H](CCCNC(=N)N)NC(=O)[C@H](CSSC[C@H](NC(=O)[C@@H](N)CC(=O)O)C(=O)N[C@@H](CC(C)C)C(=O)NCC(=O)N[C@@H](Cc4ccccc4)C(=O)N[C@@H](CCSC)C(=O)N[C@@H](CCCNC(=N)N)C(=O)N[C@@H](CCCCN)C(=O)N2)NC(=O)[C@H](CSSC[C@@H](C(=O)N[C@@H](CCCCN)C(=O)N[C@@H](Cc2ccc(O)cc2)C(=O)N[C@H](C(=O)N[C@@H](Cc2ccccc2)C(N)=O)C(C)C)NC(=O)[C@H](Cc2c[nH]c4ccccc24)NC(=O)[C@H](CCCCN)NC(=O)[C@H](Cc2c[nH]cn2)NC(=O)[C@H](Cc2ccc(C(=O)O)cc2)NC(=O)[C@H](CCCNC(=N)N)NC(=O)[C@H](CO)NC3=O)NC(=O)[C@H](CCCCN)NC(=O)[C@H](CC(=O)O)NC(=O)[C@H](CC(N)=O)NC(=O)[C@H](CC(=O)O)NC(=O)[C@@H]2CCCN2C1=O [compound 350] (H-DCLGFMRKCIPDNDKCCRPNLVCSR[Phe(4-COOH)]HKWCKYVF-NH2; disulfide 2-17, 9-23, 16-30)	400 nM	6460 nM	2620 nM	–	–	–
CC[C@H](C)[C@@H]1NC(=O)[C@@H]2CSSC[C@@H]3NC(=O)[C@H](C(C)C)NC(=O)[C@H](CC(C)C)NC(=O)[C@H](CC(N)=O)NC(=O)[C@@H]4CCCN4C(=O)[C@H](CCCNC(=N)N)NC(=O)[C@H](CSSC[C@H](NC(=O)[C@@H](N)CC(=O)O)C(=O)N[C@@H](CC(C)C)C(=O)NCC(=O)N[C@@H](Cc4ccccc4)C(=O)N[C@@H](CCSC)C(=O)N[C@@H](CCCNC(=N)N)C(=O)N[C@@H](CCCCN)C(=O)N2)NC(=O)[C@H](CSSC[C@@H](C(=O)N[C@@H](CCCCN)C(=O)N[C@@H](Cc2ccc(O)cc2)C(=O)N[C@H](C(=O)N[C@@H](Cc2ccccc2)C(N)=O)C(C)C)NC(=O)[C@H](Cc2c[nH]c4ccccc24)NC(=O)[C@H](CCCCN)NC(=O)[C@H](Cc2ccc(C(=O)O)cc2)NC(=O)[C@H]([C@@H](C)O)NC(=O)[C@H](CCCNC(=N)N)NC(=O)[C@H](CO)NC3=O)NC(=O)[C@H](CCCCN)NC(=O)[C@H](CC(=O)O)NC(=O)[C@H](CC(N)=O)NC(=O)[C@H](CC(=O)O)NC(=O)[C@@H]2CCCN2C1=O [compound 351] (H-DCLGFMRKCIPDNDKCCRPNLVCSRT[Phe(4-COOH)]KWCKYVF-NH2; disulfide 2-17, 9-23, 16-30)	–	–	–	15400 nM	6650 nM	8410 nM
CC[C@H](C)[C@@H]1NC(=O)[C@@H]2CSSC[C@@H]3NC(=O)[C@H](C(C)C)NC(=O)[C@H](CC(C)C)NC(=O)[C@H](CC(N)=O)NC(=O)[C@@H]4CCCN4C(=O)[C@H](CCCNC(=N)N)NC(=O)[C@H](CSSC[C@H](NC(=O)[C@@H](N)CC(=O)O)C(=O)N[C@@H](CC(C)C)C(=O)NCC(=O)N[C@@H](Cc4ccccc4)C(=O)N[C@@H](CCSC)C(=O)N[C@@H](CCCNC(=N)N)C(=O)N[C@@H](CCCCN)C(=O)N2)NC(=O)[C@H](CSSC[C@@H](C(=O)N[C@@H](CCCCN)C(=O)N[C@@H](Cc2ccc(O)cc2)C(=O)N[C@H](C(=O)N[C@@H](Cc2ccccc2)C(N)=O)C(C)C)NC(=O)[C@H](Cc2c[nH]c4ccccc24)NC(=O)[C@H](CCCCN)NC(=O)[C@H](Cc2ccccn2)NC(=O)[C@H]([C@@H](C)O)NC(=O)[C@H](CCCNC(=N)N)NC(=O)[C@H](CO)NC3=O)NC(=O)[C@H](CCCCN)NC(=O)[C@H](CC(=O)O)NC(=O)[C@H](CC(N)=O)NC(=O)[C@H](CC(=O)O)NC(=O)[C@@H]2CCCN2C1=O [compound 352] (H-DCLGFMRKCIPDNDKCCRPNLVCSRT[2Pal]KWCKYVF-NH2; disulfide 2-17, 9-23, 16-30)	–	–	–	90 nM	7820 nM	50 nM
CC[C@H](C)[C@@H]1NC(=O)[C@@H]2CSSC[C@@H]3NC(=O)[C@H](C(C)C)NC(=O)[C@H](CC(C)C)NC(=O)[C@H](CC(N)=O)NC(=O)[C@@H]4CCCN4C(=O)[C@H](CCCNC(=N)N)NC(=O)[C@H](CSSC[C@H](NC(=O)[C@@H](N)CC(=O)O)C(=O)N[C@@H](CC(C)C)C(=O)NCC(=O)N[C@@H](Cc4ccccc4)C(=O)N[C@@H](CCSC)C(=O)N[C@@H](CCCNC(=N)N)C(=O)N[C@@H](CCCCN)C(=O)N2)NC(=O)[C@H](CSSC[C@@H](C(=O)N[C@@H](CCCCN)C(=O)N[C@@H](Cc2ccc(O)cc2)C(=O)N[C@H](C(=O)N[C@@H](Cc2ccccc2)C(N)=O)C(C)C)NC(=O)[C@H](Cc2c[nH]c4ccccc24)NC(=O)[C@H](CCCCN)NC(=O)[C@H](CCCNC(=NC)NC)NC(=O)[C@H]([C@@H](C)O)NC(=O)[C@H](CCCNC(=N)N)NC(=O)[C@H](CO)NC3=O)NC(=O)[C@H](CCCCN)NC(=O)[C@H](CC(=O)O)NC(=O)[C@H](CC(N)=O)NC(=O)[C@H](CC(=O)O)NC(=O)[C@@H]2CCCN2C1=O [compound 353] (H-DCLGFMRKCIPDNDKCCRPNLVCSRT[Arg(Me2s)]KWCKYVF-NH2; disulfide 2-17, 9-23, 16-30)	–	–	–	2000 nM	8320 nM	2420 nM
